Laboratory results from patent EP4471048A1, “PEPTIDE INHIBITORS OF INTERLEUKIN-23 RECEPTOR” (Zealand Pharma A/S, priority 2023, dated 2024).
*1 amine or outer side, *2 acyl side, *3 side chain or, on linkers, in order; H or OH if unused. Where a SMILES comes first, the peptide text is derived from it. Bridges are numbered along the chain shown (N, C = ends). [ ]: non-standard residue; d: D form. X17 = O=C(C[C@@H](CCCN[*:3])N[*:2])[*:1]; β3hW = N[C@H](CC(=O)O)Cc1c[nH]c2ccccc12; 2Nal = N[C@@H](Cc1ccc2ccccc2c1)C(=O)O; AEF = NCCOc1ccc(C[C@H](N)C(=O)O)cc1; X1 = O=C(Cc1ccc(CN[*:1])cc1)[*:2]; 3Pal = N[C@@H](Cc1cccnc1)C(=O)O; αMeL = CC(C)C[C@](C)(N)C(=O)O; CH2COCH2 = O=C(C[*:1])C[*:2]; β3hK = NCCCC[C@H](N)CC(=O)O; dOrn = NCCC[C@@H](N)C(=O)O; NMeS = CN[C@@H](CO)C(=O)O; Dab = NCC[C@H](N)C(=O)O

Biological target: T1, human IL-23R (Homo sapiens, UniProt Q5VWK5)
T1 sequence (Q5VWK5 22-629): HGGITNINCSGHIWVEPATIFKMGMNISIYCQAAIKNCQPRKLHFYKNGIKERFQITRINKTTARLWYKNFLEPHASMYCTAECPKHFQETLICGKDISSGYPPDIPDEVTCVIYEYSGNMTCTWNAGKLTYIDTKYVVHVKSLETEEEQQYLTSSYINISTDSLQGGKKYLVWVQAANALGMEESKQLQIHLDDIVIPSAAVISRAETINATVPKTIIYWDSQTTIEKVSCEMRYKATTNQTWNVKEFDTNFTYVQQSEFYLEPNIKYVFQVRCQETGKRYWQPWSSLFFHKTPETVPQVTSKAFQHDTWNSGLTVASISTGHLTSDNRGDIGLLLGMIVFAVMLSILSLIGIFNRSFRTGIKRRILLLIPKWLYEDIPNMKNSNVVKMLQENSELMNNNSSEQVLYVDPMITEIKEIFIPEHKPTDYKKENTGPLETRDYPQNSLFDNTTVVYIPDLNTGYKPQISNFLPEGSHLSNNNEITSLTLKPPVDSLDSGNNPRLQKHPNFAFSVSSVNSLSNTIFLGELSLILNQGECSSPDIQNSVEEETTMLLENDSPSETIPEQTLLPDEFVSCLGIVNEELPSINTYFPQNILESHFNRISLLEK
Experiment: biochemical
Conditions: for Emax: read-out: % displacement (hIL-23R NIuc)
From the text: The compound binding affinity for IL-23R was estimated by the ability of compounds to displace a fluorophore-labelled reference compound from the human IL-23R. The assay principle relies on Bioluminescence Resonance Energy Transfer (BRET) between a fluorophore-labelled reference compound binding to the IL-23R part of a fusion protein consisting of the IL-23R fused to a Nanoluc luciferase enzyme (Nanoluc). The Nanoluc is placed in the N-terminus in close proximity to the binding domain of the ligand. Upon close proximity between the fluorophore of the fluorophore-labelled compound and the Nanoluc of the fusion protein, bioluminescence energy generated from conversion of a Nanoluc substrate, is transferred to the fluorophore resulting in an increase in BRET. In presence of an unlabelled compound, the unlabelled compound displaces the fluorophore-labelled peptide from its binding site resulting in a decrease in BRET. The concentration for which half of the fluorophore-labelled peptide is displaced by the unlabelled compound depends on the affinity of the compound for the IL-23R, and is termed the IC50 concentration.
The plasmid also contained a gene to confer resistance for the antibiotic hygromycin. A cell line stably expressing the Nluc-IL23R fusion protein was generated by transfection of HEK293 cells with the expression plasmid and selected with hygromycin for 3 weeks in Growth medium consisting of DMEM w/ Glutamax-I containing, 10% V/V FBS, 1% V/V P/S, 1 mM Sodium Pyruvate, and 1X NEAA, and 0.3 mg/mL hygromycin. The remaining cells were propagated and considered a stable expressing Nluc-IL23R fusion protein pool clone.
Cells expressing the Nluc-IL23R fusion protein were expanded in Growth medium and membranes prepared by homogenization of a cell pellet from 18 T175 flasks (4 °C in subsequent steps). The cell pellet was lysed Tris 10 mM, 7.5, 1 mM EDTA and protease inhibitors (Complete, Roche) and homogenized using a 15 mL glass-dounce by 50 strokes. The homogenate was spun at spin @1500 rpm for 10 min, the supernatant transferred to SV-34 tubes and spun at 40000g for 20 min at 4 °C to pellet the crude membranes. The supernatant was then removed, the pellet resuspended in 5 mL buffer containing 50 mM HEPES pH 7.4, 5 mM EGTA, and 5 mM MgCl2, and homogenized. Aliquots of the resuspended and homogenized membranes containing the Nluc-IL23R fusion protein were stored at -80 °C until use.
The plate was sealed with light impermeable plate seals, and incubated on an orbital shaker 400 rpm for 2 hours at room temperature. To determine the BRET ratio, the plate seal was removed and 25 µL of the Nanoluc substrate (Promega N1572) diluted 1:500 was added to each well and incubated for 1-2 minutes on an orbital shaker at 400 rpm. […] The BRET ratio was calculated as the fluorescence from the TAMRA/nanoluc bioluminescence.
Compound potency (IC50) and maximal displacement (% displacement) were estimated by computer-aided curve fitting using a 4-parameter logistic (4PL) non-linear model. […]
In this application, the inventors provide the data as IC50 values.

Row | IC50 [nM] | Emax [%] | % displacement (hIL-23R NIuc) [%] | SMILES
1 | 790 | 93 |  | COc1ccc(C[C@@H]2NC(=O)[C@@H]3CCC(=O)N[C@@H](CCCCNC(=O)CC[C@@H](C(=O)N[C@@H](CCCCNC(=O)Cc4ccnc(F)c4)C(N)=O)NC(=O)[C@](C)(CC(C)C)NC(=O)[C@H](Cc4ccc5ccccc5c4)NC2=O)C(=O)N[C@@H]([C@@H](C)O)C(=O)N[C@@H](C(C)C)C(=O)N[C@@H](Cc2c[nH]c4ccccc24)C(=O)N[C@@H](CCC(N)=O)C(=O)N3)cc1 [Compound 57, K(1c)(6c)^†TVWQE(6c)[Y(Me)][2-Nal][2-Me-Leu]E(1c)[K(4-pyridyl-3-fluoroacetyl)]-[NH2]]
2 | 3 |  | 99 | CNC(=O)[C@H](Cc1cccnc1)NC(=O)[C@H](CCN)NC(=O)[C@@H]1CCC(=O)NCCCCC[C@@H]2NC(=O)CC[C@H](NC(=O)[C@H](CCC(N)=O)NC(=O)[C@H](Cc3c[nH]c4ccccc34)NC2=O)C(=O)N[C@@H](Cc2ccc(OCCN)cc2)C(=O)N[C@@H](Cc2ccc3ccccc3c2)C(=O)N[C@@](C)(CC(C)C)C(=O)N1 [Compound 93, [hLys](1c)(6c)^†WQE(6c)[Y(2-aminoethoxy)][2-Nal][2-Me-Leu]E(1c)[Dab][3-(3-Pyridyl)-Ala]-[NHMe]]
3 | 0.11 | 98 |  | CC[C@H](C)[C@@H]1NC(=O)[C@@H]2CCCCNC(=O)CC[C@@H](C(=O)N[C@@H](CCN)C(=O)N[C@@H](Cc3cccnc3)C(=O)NC)NC(=O)[C@](C)(CC(C)C)NC(=O)[C@H](Cc3ccc4ccccc4c3)NC(=O)[C@H](Cc3ccc(OC)cc3)NC(=O)[C@H](CCC(=O)N2)NC(=O)[C@H](CCC(N)=O)NC(=O)[C@H](Cc2c[nH]c3ccccc23)NC(=O)[C@H](C(C)C)NC1=O [Compound 35, K(1c)(6c)^†IVWQE(6c)[Y(Me)][2-Nal][2-Me-Leu]E(1c)[Dab][3-(3-Pyridyl)-Ala]-[NHMe]]
4 | 8.5 |  | 100 | CC[C@H](C)[C@@H]1NC(=O)[C@@H]2CCCCNC(=O)CC[C@@H](C(=O)N[C@@H](CCN)C(=O)N[C@H](Cc3cccnc3)C(N)=O)NC(=O)[C@](C)(C(C)C)NC(=O)[C@H](Cc3ccc4ccccc4c3)NC(=O)[C@H](Cc3ccc(C)cc3)NC(=O)[C@H](CCC(=O)N2)NC(=O)[C@H](CCC(N)=O)NC(=O)[C@H](Cc2c[nH]c3ccccc23)NC(=O)[C@H](C(C)C)NC1=O [Compound 18, K(1c)(6c)^†IVWQE(6c)[F(4-Me)][2-Nal][2-Me-Val]E(1c)[Dab][{d}3-(3-Pyridyl)-Ala]-[NH2]]
5 | 3.5 |  | 102 | CC(C)C[C@]1(C)NC(=O)[C@H](Cc2ccc3ccccc3c2)NC(=O)[C@H](Cc2ccc(OCCN)cc2)NC(=O)[C@@H]2CSCC(=O)CSC[C@H](NC(=O)[C@H](CO)N(C)C(=O)Cc3ccc(cc3)CNC(=O)CC[C@@H](C(=O)N[C@@H](CCN)C(N)=O)NC1=O)C(=O)N[C@@H](Cc1c[nH]c3ccccc13)C(=O)N[C@@H](CCC(N)=O)C(=O)N2 [Ref 141, [4-Aminomethyl-phenylacetyl](1c)*[N-Me-Ser]C(2a)WQC(2a)[Y(2-aminoethoxy)][2-Nal][2-Me-Leu]E(1c)[Dab]-[NH2], reference compound] ([X1][NMeS]CWQC[AEF][2Nal][αMeL]E[Dab]-NH2; linker 3-6 via CH2COCH2; lactam N-10)
6 | 320 | 99 |  | CCCOc1ccc(C[C@@H]2NC(=O)[C@@H]3CCC(=O)N[C@@H](CCCCNC(=O)CC[C@@H](C(=O)NCCCCc4cccnc4)NC(=O)[C@](C)(CC(C)C)NC(=O)[C@H](Cc4ccc5ccccc5c4)NC2=O)C(=O)N[C@@H]([C@@H](C)CC)C(=O)N[C@@H](C(C)C)C(=O)N[C@@H](Cc2c[nH]c4ccccc24)C(=O)N[C@@H](CCC(N)=O)C(=O)N3)cc1 [Compound 32, K(1c)(6c)^†IVWQE(6c)[Y(nPr)][2-Nal][2-Me-Leu]E(1c)-[NH-4-(pyridin-3-yl)butanyl]]
7 | 0.44 | 101 |  | CC(C)C[C@]1(C)NC(=O)[C@H](Cc2ccc3ccccc3c2)NC(=O)[C@H](Cc2ccc(OCCN)cc2)NC(=O)[C@@H]2CCC(=O)N[C@H](CCCNC(=O)CC[C@@H](C(=O)N[C@@H](CCN)C(=O)N[C@@H](Cc3cccnc3)C(N)=O)NC1=O)CC(=O)N[C@@H]([C@@H](C)O)C(=O)N[C@@H](Cc1c[nH]c3ccccc13)C(=O)N[C@@H](CCC(N)=O)C(=O)N2 [Compound 14, [{d}bLys](1c)(6c)^†TWQE(6c)[Y(2-aminoethoxy)][2-Nal][2-Me-Leu]E(1c)[Dab][3-(3-Pyridyl)-Ala]-[NH2]] (TWQE[AEF][2Nal][αMeL]E[Dab][3Pal]-NH2; linker N-4-8 via X17)
8 | 150 | 97 |  | CNC(=O)[C@H](Cc1cccnc1)NC(=O)[C@H](CCN)NC(=O)[C@@H]1CCC(=O)NCCCC[C@H]2CC(=O)N[C@@H](Cc3c[nH]c4ccccc34)CC(=O)N[C@@H](CCC(N)=O)C(=O)N[C@@H](CCC(=O)N2)C(=O)N[C@@H](Cc2ccc(OCCN)cc2)C(=O)N[C@@H](Cc2ccc3ccccc3c2)C(=O)N[C@@](C)(CC(C)C)C(=O)N1 [Compound 100, [beta-hLys](1c)(6c)^†[beta-hTrp]QE(6c)[Y(2-aminoethoxy)][2-Nal][2-Me-Leu]E(1c)[Dab][3-(3-Pyridyl)-Ala]-[NHMe]] ([β3hK][β3hW]QE[AEF][2Nal][αMeL]E[Dab][3Pal]-NHMe; lactam 1-8, N-4)
9 | 0.67 | 107 |  | CC(C)C[C@]1(C)NC(=O)[C@H](Cc2ccc3ccccc3c2)NC(=O)[C@H](Cc2ccc(OCCN)cc2)NC(=O)[C@@H]2CC(=O)N[C@H](CCCNC(=O)CC[C@@H](C(=O)N[C@@H](CCN)C(=O)N[C@@H](Cc3cccnc3)C(N)=O)NC1=O)C(=O)N[C@@H]([C@@H](C)O)C(=O)N[C@@H](C(C)C)C(=O)N[C@@H](Cc1c[nH]c3ccccc13)C(=O)N[C@@H](CCC(N)=O)C(=O)N2 [Compound 10, [{d}Orn](1c)(6c)^†TVWQD(6c)[Y(2-aminoethoxy)][2-Nal][2-Me-Leu]E(1c)[Dab][3-(3-Pyridyl)-Ala]-[NH2]] ([dOrn]TVWQD[AEF][2Nal][αMeL]E[Dab][3Pal]-NH2; lactam 1-10, N-6)
10 | 1.5 | 98 |  | CNC(=O)[C@H](Cc1cccnc1)NC(=O)[C@H](CCN)NC(=O)[C@@H]1CCC(=O)NCCCC[C@H]2C(=O)N[C@@H]([C@@H](C)O)C(=O)N[C@@H](Cc3c[nH]c4ccccc34)C(=O)N[C@@H](CCC(N)=O)C(=O)N[C@@H](Cc3cn2nn3)C(=O)N[C@@H](Cc2ccc(OCCN)cc2)C(=O)N[C@@H](Cc2ccc3ccccc3c2)C(=O)N[C@@](C)(CC(C)C)C(=O)N1 [Compound 41, [(N3)-K](1c)(6g)^†TWQ[Pra](6g)[Y(2-aminoethoxy)][2-Nal][2-Me-Leu]E(1c)[Dab][3-(3-Pyridyl)-Ala]-[NHMe]]
11 | 150 |  | 108 | CC[C@H](C)[C@@H]1NC(=O)[C@@H]2CCCCNC(=O)CC[C@@H](C(=O)NCC(=O)N[C@H](Cc3cccnc3)C(N)=O)NC(=O)[C@](C)(C(C)C)NC(=O)[C@H](Cc3ccc4ccccc4c3)NC(=O)[C@H](CC3CC3)NC(=O)[C@H](CCC(=O)N2)NC(=O)[C@H](CCC(N)=O)NC(=O)[C@H](Cc2c[nH]c3ccccc23)NC(=O)[C@H](C(C)C)NC1=O [Compound 20, K(1c)(6c)^†IVWQE(6c)[Cyclopropyl-Ala][2-Nal][2-Me-Val]E(1c)G[{d}3-(3-Pyridyl)-Ala]-[NH2]]
